In patent US8569055B2, “Identification and characterization of cancer stem cells and methods of use” (City of Hope, priority 2006, dated 2013):

What was measured:
Assay type in all cases: cell-based, human
[1] = tested on: uPAR-positive sorted NCI-H1417 cells; assay: Cytotoxicity assay (Guava ViaCount), 5-FU, sorted uPAR-positive NCI-H1417; settings: uPAR-positive sorted NCI-H1417, 72 hours
Experimental: (§1) FIG. 2: Cytotoxic effect of 5-FU on non-sorted and sorted (uPAR-positive and uPAR-negative populations) derived from SCLC cell lines. (A) […] cells (H211, H69AR, H1417) were placed in wells of a 48-well plate in triplicates and incubated for 72 hr in the presence of varying concentrations of 5-FU. (B) SCLC cell lines were FACS sorted after staining with anti-uPAR antibodies and were plated at the same seeding density ([…]/well of 96-well plate) and treated with 5-FU at […] for 72 hr. Cell survival was evaluated after adding Guava ViaCount reagent and counting viable and dead cells. Only viable cells were included in data analysis, and 100% viability was defined as number of viable cells cultured in absence of 5-FU. […] The data points represent averages±SD of three independent experiments. […]
(§2) Cells were counted, placed into 96-well plates (4×10^3 cells/well, in triplicate), and treated with 5-fluorouracil (5-FU) at a final concentration of 0, 3, 10, 100, or 200 μg/ml. After incubation for 72 hours, both viable and dead cells were counted using the Guava ViaCount assay. […] Fluorescence of the dyes allows quantitative assessment of both viable and non-viable cells in suspension. […]

[2] = tested on: uPAR-positive sorted NCI-H211 cells; assay: Cytotoxicity assay (Guava ViaCount), 5-FU, sorted uPAR-positive NCI-H211; settings: uPAR-positive sorted NCI-H211, 72 hours
Experimental: as §1, §2

[3] = tested on: non-sorted NCI-H211, NCI-H69AR, NCI-H1417 cells; assay: Cytotoxicity assay (Guava ViaCount), 5-FU, non-sorted SCLC cell lines; settings: 5-FU up to 200 μg/ml, 72 hours
Experimental: as §1, §2

[4] = tested on: uPAR-positive NCI-H69AR cells; assay: Cytotoxicity assay (Guava ViaCount), 5-FU, sorted uPAR-positive NCI-H69AR; settings: 72 hours
Experimental: as §1, §2

[5] = tested on: uPAR-negative NCI-H69AR cells; assay: Cytotoxicity assay (Guava ViaCount), 5-FU, sorted uPAR-negative NCI-H69AR; settings: 72 hours
Experimental: as §1, §2

[6] = tested on: NSC F3 stem cell; assay: Inhibition of stem cell migration by uPAR inhibitors, in vitro migration assay; settings: inhibitor applied to lower chamber of migration assay system
Text: FIG. 10: Inhibition of NSC F3 stem cell migration by anti-uPAR antibodies and bikunin.
The role of the uPA/uPAR system in stem cell migration was investigated using the immortalized neural stem cell line (NSC) HB1.F3.C1 and bone marrow-derived mesenchymal stem cells (MSC) (passages 5-6) for in vitro cell migration assays. Five cancer cell lines expressing high levels of uPAR (SK-N-AS, U251, PC-3, MDA-MB-231, and CRL-5904) and five cancer cell lines expressing low levels of uPAR (COLO-320, NB-1691, CRL-5824, CRL-5869, and MCF-7) as determined in Example 6 were utilized for this experiment.
The effect of uPAR inhibitors on stem cell migration was examined in order to verify that increased stem cell migration to tumor cells expressing high levels of uPAR was dependent on uPAR. Bikunin, a physiological inhibitor of uPA, and various anti-uPAR antibodies were applied to the lower chamber of the migration assay system.

For `O=c1[nH]cc(F)c(=O)[nH]1` [5-FU, 5-fluorouracil], the cells killed [1] was 40-50%, the cells killed [2] was 40-50% and the cells killed [3] was 40-80%. The cells killed ([4]; 10 μg/ml 5-FU) was 30%, the killing effect ([4]; 200 μg/ml 5-FU) was “approximately 100%” and the cells killed ([5]; 10 μg/ml 5-FU) was 85%. For the same molecule, the killing effect ([5]; 200 μg/ml 5-FU) was “approximately 100%”.

B1: Bikunin: a physiological inhibitor of uPA (protein, UniProt P02760 206-352, looked up)
Inter-alpha-trypsin inhibitor …: AVLPQEEEGSGGGQLVTEVTKKEDSCQLGYSAGPCMGMTSRYFYNGTSMACETFQYGGCMGNGNNFVTEKECLQTCRTVAACNLPIVRGPCRAFIQLWAFDAVKGKCVLFPYGGCQGNGNKFYSEKECREYCGVPGDGDEELLRFSN
modifications: Inter-alpha-trypsin inhibitor light chain
With B1 the “inhibition of stem cell migration” value [6] was “effectively inhibited stem cell migration”.
